Source: paper PMC12040169 (PLOS Biology, 2025)

Assay: in vitro
Settings: human, hela cells

SMILES | viability at 28.5 h, 10 µM (% viability) [%] | viability at 28.5 h, 10 µM [%]
Cc1c(Br)c(C(F)(F)F)nn1CC(=O)NCCN1CCOCC1 [CBK018700] | 107 | 
Cc1cc(NC(=O)Cn2nc(C(F)(F)F)c(Cl)c2C)no1 [CBK018709] | 87.3 | 
Cc1cccc(C(=O)N/N=C/c2ccoc2)c1O [CBK018727] | 90.7 | 
Cc1[nH]c(=O)c(S(=O)(=O)c2ccccc2)c(C)c1Cl [CBK018736] | 83.1 | 
Oc1ccc(C2N=C(c3ccccc3)N=C(c3ccccc3)N2)cc1 (stereo not drawn) [CBK018755] | 95.4 | 
c1cc2c(cc1CNc1nnn[nH]1)OCO2 [CBK018783] | 91.5 | 
CSc1cc(CC(C)(C)C)c2cccc(F)c2n1 [CBK018791] | 99.8 | 
OCc1nc(-c2cccnc2)co1 [CBK018811] | 106 | 
CN(C)c1nc(N(C)C)n(Cc2ccc(F)cc2)n1 [CBK018839] | 89.3 | 
CCOC(=O)c1nnsc1Sc1ccc(C)cc1 [CBK018867] | 89.6 | 
Cn1/c(=N\C(=O)c2cccs2)sc2cc(Br)ccc21 [CBK018873] | 102 | 
CCCN(Cc1ccoc1)CC1CC1 [CBK018931] | 94.6 | 
Clc1ccc(-c2nn[nH]n2)c(Cl)c1 [CBK018932] | 89.7 | 
O=c1nc(-c2cc(Br)cs2)[nH]c2ccc(Cl)cc12 [CBK018959] | 90.5 | 
CCOC(=O)c1cnc(SC)nc1N1CCOCC1 [CBK018971] | 90.7 | 
C=CCNc1nc(N)c(/C(N)=N\C#N)s1 [CBK019028] | 99.3 | 
CC1(C)NC(=O)N(CC(O)COc2cc3ccccc3cc2C(=O)N2CCCCC2)C1=O (stereo not drawn) [CBK019029] | 120 | 
Nc1nonc1NC(=O)c1ccccc1Cl [CBK019040] | 99.3 | 
Cc1nc2n(n1)C1=CC(C)(C)CC(=O)C1=NN2 [CBK019050] | 89.2 | 
C#CCN1C(=O)C2(OCCO2)c2cccc(C)c21 [CBK019069] | 95.1 | 
Clc1ccccc1COc1cccc(/C=N/Nc2nc(N3CCCC3)nc(N3CCCC3)n2)c1 [CBK019076] | 89.8 | 
CCCC1C(C(N)=O)=C(C)NC(C)=C1C(N)=O [CBK019102] | 105 | 
Clc1nsnc1N1CCOCC1 [CBK019133] | 101 | 
COc1ccc(C2(C(F)(F)F)NC(=O)N3CCN=C3S2)cc1 (stereo not drawn) [CBK019170] | 106 | 
CCCCOC(=O)CCn1c(=S)oc2ccccc21 [CBK019181] | 87.9 | 
Cc1nccn1C(=O)NC1CCCCC1 [CBK019187] | 81.8 | 

SMILES | viability at 28.5 h, 10 µM (% viability) [%] | viability at 28.5 h, 10 µM [%]
CC1=CC[C@H]2COC(CN3CCOC3C(C)C)[C@@H]1C2 (stereo partly drawn) [CBK019189] | 122 | 
O=S(=O)(c1ccc2c(c1)nc1n2CCC1)N1CCOCC1 [CBK019200] | 49.6 | 
COC(=O)Nc1cc2sccc2nc1C(F)(F)F [CBK019229] | 80 | 
N#Cc1sc2c(c1NC(=O)C(F)(F)F)CCCC2 [CBK019233] | 92.1 | 
Nc1csc(C2CCOCC2)n1 [CBK019258] | 77.3 | 
NC(=O)c1c(N)c(C(N)=S)n2c1CCC2 [CBK019270] | 98.1 | 
O=C(O)CP(=O)(O)c1ccc(Cl)cc1 [CBK019291] |  | 102
CC1(Cc2ccn[nH]2)SCCCS1 [CBK019308C] | 109 | 
CCSC(SCC)c1ccnn1-c1ccccc1 [CBK019332] | 87.1 | 
COc1cc(C2CN=NC23Cc2ccccc2C3=O)cc(OC)c1OC (stereo not drawn) [CBK019341] | 90.4 | 
CC(C)N1CCC(=NNC(=O)C(O)c2ccccc2)CC1 (stereo not drawn) [CBK019361] | 110 | 
O=S(=O)(Cc1ccc(Br)cc1F)c1ccccn1 [CBK019368] | 90.4 | 
COc1ccc(C2CC(Cn3cc(C(C)=O)c(=O)[nH]c3=O)ON2C)cc1 (stereo not drawn) [CBK019386] | 95.7 | 
COCCOc1nnc(C)c2ccccc12 [CBK019388] | 93.6 | 
O=C(c1cccs1)N1CCCN(c2nccc(C(F)(F)F)n2)CC1 [CBK019390] | 89.4 | 
OCC(O)/C=N/Nc1nc(N2CCCCC2)nc(N2CCCCC2)n1 (stereo not drawn) [CBK019423] | 107 | 
Cc1ncc(-c2ccc3ccccc3c2)s1 [CBK019439B] | 91.5 | 
Cc1cc2cc3n(c2nn1)N=C(Cl)CC3 [CBK019458] | 91.4 | 
O=C(Oc1cccc2cccnc12)c1ccc(Br)o1 [CBK019461] | 89.4 | 
CCCCCC1CC(CC(=O)NC(=S)Nc2ccccc2Cl)C(=O)O1 (stereo not drawn) [CBK019495] | 86.8 | 
O=C(O)C1CSC(c2cc3ccccc3o2)N1 (stereo not drawn) [CBK019502] | 93.7 | 
O=C(Cc1nc2ccccc2[nH]1)N1CCOCC1 [CBK019505] | 93.7 | 
CCOC(=O)c1[nH]c(=O)[nH]c1CSc1nc(C)cc(C)n1 [CBK019514] | 109 | 
CCCCSc1nnc(-c2cc3c(C(F)(F)F)nn(C)c3s2)n1C [CBK019526] | 97.5 | 
N#Cc1c2ccccc2cn1Cc1cccc(Cl)c1 [CBK019531] | 82.6 | 
Oc1cc2nnnn2nc1-c1ccccc1 [CBK019550] | 101 | 

SMILES | viability at 28.5 h, 10 µM (% viability) [%] | viability at 28.5 h, 10 µM [%]
CC1(C)CC(N(Cc2ccccc2)C(=O)Cc2ccco2)CCO1 (stereo not drawn) [CBK019561] | 95.9 | 
Brc1nc2c3c(nc(N4CCOCC4)c2s1)CCCC3 [CBK019604] | 83.4 | 
NC(=O)CC1C=CS(=O)(=O)C1 (stereo not drawn) [CBK019653] | 76.7 | 
CCOc1cc(C(=S)N2CCCCC2)ccc1OC(=O)c1ccccc1Cl [CBK019660] | 98.9 | 
CC1=Nc2c(ccc3nsnc23)NC(=O)C1 [CBK019676] | 97.1 | 
C#CCOC(=O)Nc1cnc(N2CCOCC2)c(C(F)(F)F)c1 [CBK019679] | 90.5 | 
CSc1nc(=O)c(CCC(=O)O)n[nH]1 [CBK019689] | 110 | 
CC(C)/N=C1/N[C@@H]2CS(=O)(=O)C[C@H]2O1 [CBK019692G] | 87 | 
CCc1nc(C)ccc1OCC(O)CNC(C)(C)C (stereo not drawn) [CBK019698] | 94.3 | 
Cc1ccc(-c2csc3ncn4nnnc4c23)cc1 [CBK019710] | 92.5 | 
O=C(O)COc1cccc2nsnc12 [CBK019749] | 95.1 | 
CCn1c2ccccc2c2cc(C(N)=O)c(N)nc21 [CBK019787] | 85.2 | 
CSc1nn(C)c(=O)c2c3c(sc12)CCC3 [CBK019796] | 83.7 | 
CC(=O)Nc1ccc(C2=NC3SC(c4ccc(NC(C)=O)cc4)=NC3S2)cc1 (stereo not drawn) [CBK019799] | 103 | 
CN(C)c1nc(N(C)C)n(C(=O)c2cccs2)n1 [CBK019805] | 99.3 | 
Cc1nc(N)c(CNC2CCCCC2)c(O)n1 [CBK019809] | 112 | 
O=C(NCC1CCCO1)NC(=O)c1nsc2ccccc12 (stereo not drawn) [CBK019827] | 113 | 
CSC1=Nc2cc(Cl)ccc2SCC1 [CBK019829] | 98.1 | 
Cc1cc(C)nc(SCc2csc(N)n2)n1 [CBK019838] | 106 | 
Brc1ccsc1-c1csc(-c2ccccc2)n1 [CBK019859] | 102 | 
CC(C)CSc1nsc(N)n1 [CBK019938] | 97.1 | 
CC1(C)CC(=O)c2sc(NC(=O)c3cccc(C(F)(F)F)c3)nc2C1 [CBK019941] | 94.2 | 
O=C(CN1CCOCC1)N/N=C/c1ccncc1 [CBK019949] | 83.8 | 
O=C(Nc1ccc(F)cc1F)Nc1cc(Cl)sc1Cl [CBK019967] | 102 | 
CCCCCC1/C(=N\O)CCC1CC(=O)OC (stereo not drawn) [CBK019978] | 93.9 | 
NC1=NC(=O)C2(COC(c3cccnc3)OC2)S1 (stereo not drawn) [CBK019981] | 91.3 | 

SMILES | viability at 28.5 h, 10 µM (% viability) [%] | viability at 28.5 h, 10 µM [%]
CC(CCCC(C)(C)O)CC1OCCC(C)O1 (stereo not drawn) [CBK019986] | 115 | 
CC(C)S(=O)(=O)CC(=O)Nc1ccc(C(=O)O)cc1 [CBK020001] | 96.6 | 
O=C1CSC2(CCCCC2)N1Nc1ccccc1 [CBK020047] | 101 | 
Cc1c(N)c(=O)n2nc(C(F)(F)F)nc2n1C [CBK020172] | 90.4 | 
CC(=O)NC1=NC(=O)CN1C [CBK020181] | 107 | 
COC(=O)NC(NC(=O)OC)C(=O)c1ccccc1 [CBK020208] | 100 | 
CC(=O)Nc1nonc1OCCOc1nonc1NC(C)=O [CBK020227] | 113 | 
C/C(=N\NC(=O)C(C)Sc1ncccn1)C(C)(C)C (stereo not drawn) [CBK020243] | 104 | 
O=S(=O)(c1ccccc1)C1CCCCO1 (stereo not drawn) [CBK020284] | 91.3 | 
COc1cnn(-c2ccccc2)c(=O)c1N(C)C [CBK020317] | 94 | 
CN1CCC(=NNC(=O)CCSc2ccc(Cl)cc2)CC1 [CBK020372] | 99.6 | 
CCSc1nnc2c3c(sc2c1N)CC(C)(C)OC3 [CBK020374] | 95.4 | 
O=C(O)CCC(=O)Nc1ccc(Sc2ccc([N+](=O)[O-])cc2)cc1 [CBK020438] | 92.5 | 
COc1ccc(-c2nc3c(c(=S)[nH]2)CCCC3)cc1 [CBK020440] | 99.2 | 
CC1(C)CN=C(N2CCN(C3=NCC(C)(C)S3)CC2)S1 [CBK020461] | 93.8 | 
NS(=O)(=O)c1ccccc1Sc1ccccc1 [CBK020524] | 89 | 
CCC1(C)Cc2sc3[nH]c(=O)c(SCC(N)=O)nc3c2CO1 (stereo not drawn) [CBK020581] | 87.3 | 
CCCCc1ccc(Nc2csc(N)n2)cc1 [CBK020594] | 82.5 | 
CCOC1(c2ccccc2)N=C2C(Cl)=CC(C(F)(F)F)=CN2N=C1c1ccccc1 (stereo not drawn) [CBK020634] | 91.4 | 
Nc1nc2c3c(c(-c4ccccc4)nc2[nH]1)CCCC3 [CBK020648] | 78.2 | 
Nc1c(C(=S)c2cccs2)oc2c1C(c1ccccc1)CC(=O)N2 (stereo not drawn) [CBK020690] | 42.2 | 
O=C(NC(=S)CC1C=NCS1)c1ccccc1 (stereo not drawn) [CBK020794] | 107 | 
COCCNC(=O)CSc1cc(Cl)nc(Cl)c1 [CBK020796] | 88.3 | 
COc1ccc(C2NC(C(=O)O)CS2)cc1CN1C[C@@H]2C[C@H](C1)c1cccc(=O)n1C2 (stereo partly drawn) [CBK020798] | 93.8 | 
